Common to all, as to assay type: binding
The target of test [1] is T1, JAK2 (Homo sapiens, UniProt O60674).
T1 construct: endogenous in cells; host or cells: Molt4 (ATCC CRL-1582) and Ramos (ATCC CRL-1596), mixed lysate 1:2
In words: Kinobeads assay, JAK2. The conditions noted are these: mixed Molt4/Ramos lysate, read-out: Inhibition values (IC50) JAK2. The method in brief: (§1)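 IC50s come from capture competition: compound at various concentrations versus an immobilized aminopyrido-pyrimidine ligand for kinases in 1:2 Molt4/Ramos lysate (10 mg/mL), 3 h in a cold room. Captured JAK-family kinases were measured by specific-antibody dot blot with Odyssey infrared detection.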

In test [2] the target is T2, JAK1 (Homo sapiens, UniProt P23458).
T2 construct: endogenous in cells; host or cells: Molt4 (ATCC CRL-1582) and Ramos (ATCC CRL-1596), mixed lysate 1:2
In words: Kinobeads assay, JAK1. The conditions noted are these: mixed Molt4/Ramos lysate, read-out: Inhibition values (IC50) JAK1. The method in brief: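 Competitive pulldown in combined Molt4 and Ramos lysates (1 vs 2 volumes): compound, as a nine-point 1:3 series, and kinobeads were shaken together for 3 hours in a cold room. Captured JAK1 was quantified on an infrared-read antibody dot blot and IC50 calculated. Controls held 2% DMSO without compound.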

Test [3] has as its target T3, TYK2 (Homo sapiens, UniProt P29597).
T3 construct: endogenous in cells; host or cells: Molt4 (ATCC CRL-1582) and Ramos (ATCC CRL-1596), mixed lysate 1:2
In words: Kinobeads assay, TYK2. The conditions noted are these: mixed Molt4/Ramos lysate, read-out: Inhibition values (IC50) TYK2. The method in brief: as §1

T3 sequence (P29597 whole entry): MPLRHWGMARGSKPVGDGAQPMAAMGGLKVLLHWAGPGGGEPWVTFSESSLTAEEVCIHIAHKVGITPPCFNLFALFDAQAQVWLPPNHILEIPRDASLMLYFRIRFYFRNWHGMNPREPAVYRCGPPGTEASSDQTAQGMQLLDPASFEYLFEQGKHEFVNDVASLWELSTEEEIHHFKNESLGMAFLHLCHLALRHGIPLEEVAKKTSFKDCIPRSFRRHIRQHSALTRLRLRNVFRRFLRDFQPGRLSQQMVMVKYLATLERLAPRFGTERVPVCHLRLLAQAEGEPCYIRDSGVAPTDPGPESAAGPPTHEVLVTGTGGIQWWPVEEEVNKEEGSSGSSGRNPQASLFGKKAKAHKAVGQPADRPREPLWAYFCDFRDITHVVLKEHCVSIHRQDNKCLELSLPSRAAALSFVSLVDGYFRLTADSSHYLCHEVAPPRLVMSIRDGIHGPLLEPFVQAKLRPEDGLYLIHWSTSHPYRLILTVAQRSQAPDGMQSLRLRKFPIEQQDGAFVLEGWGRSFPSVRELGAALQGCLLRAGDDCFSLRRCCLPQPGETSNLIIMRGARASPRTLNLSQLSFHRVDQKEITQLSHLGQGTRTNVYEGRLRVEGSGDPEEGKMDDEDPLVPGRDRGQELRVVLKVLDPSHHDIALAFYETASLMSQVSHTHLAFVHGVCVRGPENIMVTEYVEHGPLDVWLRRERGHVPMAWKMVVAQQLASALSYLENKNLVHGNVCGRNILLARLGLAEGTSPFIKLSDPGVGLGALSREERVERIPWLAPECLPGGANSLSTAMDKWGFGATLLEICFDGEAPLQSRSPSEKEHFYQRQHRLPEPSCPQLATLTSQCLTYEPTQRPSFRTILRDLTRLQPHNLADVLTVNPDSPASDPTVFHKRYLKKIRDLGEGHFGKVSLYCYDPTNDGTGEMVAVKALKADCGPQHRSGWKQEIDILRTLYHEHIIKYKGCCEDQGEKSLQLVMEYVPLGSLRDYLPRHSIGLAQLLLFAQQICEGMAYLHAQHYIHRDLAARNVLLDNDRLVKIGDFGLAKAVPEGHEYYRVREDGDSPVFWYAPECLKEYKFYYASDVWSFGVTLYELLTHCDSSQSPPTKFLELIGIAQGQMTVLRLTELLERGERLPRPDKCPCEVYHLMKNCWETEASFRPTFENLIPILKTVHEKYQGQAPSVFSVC
T2 sequence (P23458 whole entry): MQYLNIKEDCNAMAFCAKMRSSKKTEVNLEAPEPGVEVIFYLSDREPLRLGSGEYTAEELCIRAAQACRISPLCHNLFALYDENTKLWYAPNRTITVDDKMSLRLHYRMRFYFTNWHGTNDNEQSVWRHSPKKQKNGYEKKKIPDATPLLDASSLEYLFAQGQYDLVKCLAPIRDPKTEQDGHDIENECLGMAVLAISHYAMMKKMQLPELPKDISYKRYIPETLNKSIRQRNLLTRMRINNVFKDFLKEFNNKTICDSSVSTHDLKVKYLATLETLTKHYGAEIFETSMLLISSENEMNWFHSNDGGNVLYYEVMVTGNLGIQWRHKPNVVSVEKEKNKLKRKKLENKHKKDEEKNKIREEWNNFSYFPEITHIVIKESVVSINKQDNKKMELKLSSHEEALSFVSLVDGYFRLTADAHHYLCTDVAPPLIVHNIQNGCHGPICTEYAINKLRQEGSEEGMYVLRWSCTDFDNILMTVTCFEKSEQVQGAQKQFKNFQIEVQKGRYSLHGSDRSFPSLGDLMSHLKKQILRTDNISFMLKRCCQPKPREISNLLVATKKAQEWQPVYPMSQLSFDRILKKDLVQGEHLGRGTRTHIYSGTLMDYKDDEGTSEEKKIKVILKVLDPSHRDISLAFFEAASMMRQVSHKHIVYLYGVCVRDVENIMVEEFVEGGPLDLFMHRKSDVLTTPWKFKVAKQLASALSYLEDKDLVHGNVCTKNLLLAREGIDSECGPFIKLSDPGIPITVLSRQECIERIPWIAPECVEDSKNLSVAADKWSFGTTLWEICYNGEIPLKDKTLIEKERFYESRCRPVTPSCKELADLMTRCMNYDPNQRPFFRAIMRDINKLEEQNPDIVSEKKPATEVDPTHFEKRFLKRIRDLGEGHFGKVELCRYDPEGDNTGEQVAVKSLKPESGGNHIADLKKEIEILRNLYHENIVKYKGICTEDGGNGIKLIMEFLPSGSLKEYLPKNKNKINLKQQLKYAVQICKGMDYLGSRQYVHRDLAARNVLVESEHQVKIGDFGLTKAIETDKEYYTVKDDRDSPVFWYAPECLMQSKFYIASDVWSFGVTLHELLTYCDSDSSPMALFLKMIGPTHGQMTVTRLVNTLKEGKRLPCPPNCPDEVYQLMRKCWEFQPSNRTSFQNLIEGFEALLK
T1 sequence (O60674 whole entry): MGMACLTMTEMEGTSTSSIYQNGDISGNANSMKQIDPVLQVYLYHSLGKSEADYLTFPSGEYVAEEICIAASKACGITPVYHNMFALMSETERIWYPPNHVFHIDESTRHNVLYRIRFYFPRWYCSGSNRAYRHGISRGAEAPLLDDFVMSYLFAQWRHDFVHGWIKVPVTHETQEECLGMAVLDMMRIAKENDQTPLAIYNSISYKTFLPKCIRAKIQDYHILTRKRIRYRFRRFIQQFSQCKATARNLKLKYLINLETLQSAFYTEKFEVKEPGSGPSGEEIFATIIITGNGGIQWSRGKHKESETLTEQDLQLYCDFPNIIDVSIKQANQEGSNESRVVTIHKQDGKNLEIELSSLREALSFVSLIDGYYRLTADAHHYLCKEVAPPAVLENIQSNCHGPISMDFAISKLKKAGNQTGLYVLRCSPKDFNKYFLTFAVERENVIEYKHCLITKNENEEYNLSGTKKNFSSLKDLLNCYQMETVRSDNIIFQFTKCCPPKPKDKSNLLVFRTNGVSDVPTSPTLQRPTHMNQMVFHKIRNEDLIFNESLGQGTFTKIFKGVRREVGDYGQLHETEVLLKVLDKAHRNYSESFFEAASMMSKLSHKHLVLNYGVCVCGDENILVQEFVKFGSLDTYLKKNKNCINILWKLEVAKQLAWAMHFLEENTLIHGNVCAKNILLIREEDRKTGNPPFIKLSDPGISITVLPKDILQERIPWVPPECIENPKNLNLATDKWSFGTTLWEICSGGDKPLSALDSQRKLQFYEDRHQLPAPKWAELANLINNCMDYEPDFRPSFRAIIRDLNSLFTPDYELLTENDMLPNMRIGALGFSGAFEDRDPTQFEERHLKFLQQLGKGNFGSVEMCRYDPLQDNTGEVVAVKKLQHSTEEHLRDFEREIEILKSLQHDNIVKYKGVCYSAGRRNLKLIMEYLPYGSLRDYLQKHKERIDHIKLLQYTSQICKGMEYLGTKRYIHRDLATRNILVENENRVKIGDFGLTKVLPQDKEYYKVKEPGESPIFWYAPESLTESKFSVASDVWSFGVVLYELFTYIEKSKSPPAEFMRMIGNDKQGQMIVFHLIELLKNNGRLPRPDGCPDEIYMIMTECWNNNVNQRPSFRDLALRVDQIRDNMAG

Turning to `Cn1cc(Nc2ncc(Cl)c(N[C@H](CO)c3cccc(F)c3)n2)cn1` [Compound 85], the IC50 in test [1], in test [2] and in test [3] was 100 to 1000 nM throughout.
`CN(C)CCNC(=O)Cn1cc(Nc2ncc(Cl)c(N[C@H](CO)c3ccccc3)n2)cn1` [Compound 89]: the IC50 (usually the concentration at which inhibition is half-maximal) is 1000 to 10000 nM in test [1], 100 to 1000 nM in test [2] and 100 to 1000 nM in test [3].
As for `CN(C)CCCNC(=O)Cn1cc(Nc2ncc(Cl)c(N[C@H](CO)c3ccccc3)n2)cn1` [Compound 90], the concentration for half-maximal inhibition (IC50) in test [1] was 1000 to 10000 nM; in test [2], 100 to 1000 nM; in test [3], 100 to 1000 nM.
As for `OCCn1cc(Nc2ncc(Cl)c(NC(CO)c3cccc(Br)c3)n2)cn1` (stereo not drawn) [Compound 93], the results for the IC50 in test [1], in test [2] and in test [3] were 1000 to 10000 nM, 1000 to 10000 nM and 100 to 1000 nM, respectively.
On to `OC[C@@H](Nc1nc(Nc2cn[nH]c2)ncc1Cl)c1cccc(F)c1` [Compound 88], for which the half-maximal inhibitory concentration (IC50) in test [1], in test [2] and in test [3] was 100 to 1000 nM each time.
`Cn1cc(Nc2ncc(Cl)c(N[C@H](CO)c3cccnc3)n2)cn1` [Compound 91]: the IC50 is 1000 to 10000 nM in test [1], 100 to 1000 nM in test [2] and 100 to 1000 nM in test [3].
Consider `OCCn1cc(Nc2ncc(Cl)c(N[C@H](CO)c3cccc(F)c3)n2)cn1` [Compound 86], for which the IC50 in test [1], in test [2] and in test [3] was 100 to 1000 nM in each case.
On to `OCCn1cc(Nc2ncc(Cl)c(N[C@H](CO)c3cccnc3)n2)cn1` [Compound 92], for which the IC50 in test [1] was in the range of 1000 to 10000 nM; in test [2], 100 to 1000 nM; in test [3] it was 100 to 1000 nM.
Turning to `Cn1cc(Nc2ncc(F)c(N[C@H](CO)c3ccccc3)n2)cn1` [Compound 3], the 50% inhibitory concentration (IC50) in test [1] is not below 10000 nM; in test [2], 1000 to 10000 nM; in test [3], 1000 to 10000 nM.
Consider `NC(=O)Cn1cc(Nc2ncc(Cl)c(N[C@H](CO)c3cccc(F)c3)n2)cn1` [Compound 87], for which the 50% inhibitory concentration (IC50) in test [1] was 100 to 1000 nM; in test [2] it was less than 100 nM; in test [3] it was 100 to 1000 nM.

These data come from patent US20140179664A1, “Heterocyclyl Pyrimidine Analogues As JAK Inhibitors” (Cellzome Limited, priority 2011, published 2014).
